Results published in US20230192657A1, “1,2,4-TRIAZOLINONE CB1 INHIBITORS” (Goldfinch Bio, Inc., priority 2020, published 2023).

Molecular target: CB1 receptor (Homo sapiens, UniProt P21554)
Experiment: CB1 cAMP Antagonist Assay (LANCE Ultra cAMP kit)
Format: cell-based
Settings: Flp-In CHO cells stably expressing the CB1 receptor; forskolin and CP55940 agonist at EC90; cAMP FRET readout
From the text: CB1 cAMP Antagonist Assay
LANCE Ultra cAMP kit (Perkin Elmer) was used to quantitate the amount of 3′,5′-cyclic adenosine monophosphate (cAMP) produced in Flp-In CHO (Invitrogen) cells stably expressing the CB1 receptor.
Forskolin was initially titrated to determine the response of the cells. The EC90 of forskolin was used for compound testing. CP55940 was titrated and used with EC90 of forskolin to determine the level of agonist stimulation. EC90 of the agonist was used for subsequent compound testing.
Forskolin (Sigma), CP55940 (Cayman Chemicals), and AM251 (MCE) were diluted in 100% DMSO, starting at 100 mM, 1 mM, and 1 mM respectively, in 3-fold serial dilutions. Test compounds were diluted in 100% DMSO starting from 10 mM, 3-fold dilutions. The cAMP assay buffer contains 1x Hank’s Buffered Saline Solution with Ca^2+ and Mg^2+ (Invitrogen), 5.3 mM HEPES (Invitrogen), 0.05% BSA, 0.5 mM IBMX (Sigma).
For all assays, cells were harvested, counted, and diluted in cAMP assay buffer to 1× 10^5 cells/mL. Only cells with viability >85% were used for the assay. Cells were seeded at 1000 cells/well in 384-well plates and 10 nL/well AM251 or test compound was added and incubated at 37° C. for 10 min. […] To detect the amount of cAMP produced, 5 µL of a 100x diluted stock of Eu-cAMP tracer and 5 µL of 200x diluted stock of Ulight-anti-cAMP were added to each well, and the plate incubated at 25° C. for 15 min. The FRET signal was read using an EnVision microplate reader (λex=320 nm, λem=615 nm and 665 nm).
The IC50 is determined by fitting the percentage of inhibition as a function of compound concentrations with the Hill equation, using a 4-parameter fit in either XLfit or GraphPad Prism.

CB1 receptor, sequence (P21554 whole entry): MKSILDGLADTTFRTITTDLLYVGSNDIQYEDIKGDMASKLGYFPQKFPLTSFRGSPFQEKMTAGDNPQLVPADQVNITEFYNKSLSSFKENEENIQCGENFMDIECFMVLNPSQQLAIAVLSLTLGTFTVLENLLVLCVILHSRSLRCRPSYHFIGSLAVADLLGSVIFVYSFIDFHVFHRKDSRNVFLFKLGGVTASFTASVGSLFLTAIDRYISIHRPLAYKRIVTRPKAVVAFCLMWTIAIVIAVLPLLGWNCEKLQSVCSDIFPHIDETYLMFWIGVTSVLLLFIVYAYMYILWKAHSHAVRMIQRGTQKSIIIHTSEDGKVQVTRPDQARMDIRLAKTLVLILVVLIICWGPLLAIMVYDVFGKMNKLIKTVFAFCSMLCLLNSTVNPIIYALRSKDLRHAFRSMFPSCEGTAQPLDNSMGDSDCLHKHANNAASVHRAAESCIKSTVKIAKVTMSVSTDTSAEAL

SMILES | IC50
NC(=O)CCn1c(N2C[C@@]3(CCc4ccccc43)C(c3ccc(Cl)cc3)=N2)nn(-c2ccc(Cl)cc2)c1=O [Compound 128] | > 5 µM
Cn1c(N2C[C@H](c3ccccc3)C(c3ccc(Cl)cc3)=N2)nn(CCc2ccc(C(=O)NCCO)cc2)c1=O [Compound 200] | 0.1 to 1 µM
COC(=O)c1cccc(Cn2nc(N3CC(c4ccccc4)C(c4ccc(Cl)cc4)=N3)n(C)c2=O)c1 (stereo not shown) [Compound 189] | 0.1 to 1 µM
CCOC(=O)Cn1c(N2C[C@H](c3ccccc3)C(c3ccc(Cl)cc3)=N2)nn(-c2ccc(Cl)cc2)c1=O [Compound 104, ethyl 2-[1-(4-chlorophenyl)-3-[(4S)-3-(4-chlorophenyl)-4-phenyl-4,5-dihydro-1H-pyrazol-1-yl]-5-oxo-4,5-dihydro-1H-1 ,2,4-triazol-4-yl]acetate] | < 0.1 µM
O=C(O)CCn1c(N2C[C@]3(CCc4ccccc43)C(c3ccc(Cl)cc3)=N2)nn(-c2ccc(Cl)cc2)c1=O [Compound 129] | > 5 µM
CN1CCN(Cc2ccc(Cn3nc(N4C[C@H](c5ccccc5)C(c5ccc(Cl)cc5)=N4)n(CC(N)=O)c3=O)cc2)CC1 [Compound 149] | > 5 µM
NC(=O)Cn1c(N2C[C@]3(CCc4ccccc43)C(c3ccc(Cl)cc3)=N2)nn(-c2ccc(Cl)cc2)c1=O [Compound 124, 2-[1-(4-chlorophenyl)-3-[(1R)-3-(4-chlorophenyl)-1,2,3,5-tetrahydrospiro[indene-1,4-pyrazol]-1-yl]-5-oxo-4,5-dihydro-1H-1,2,4-triazol-4-yl]acetamide] | 0.1 to 1 µM
O=c1n(Cc2ccc(Cl)cc2)nc(N2CC3(CCc4ccccc43)C(c3ccc(Cl)cc3)=N2)n1CCO (stereo in doubt) [Compound 118, 3-[(1R)-3-(4-chlorophenyl)-1,2,3,5-tetrahydrospiro[indene-1,4-pyrazol]-1-yl]-1-[(4-chlorophenyl)methyl]-4-(2-hydroxyethyl)-4,5-dihydro-1H-1,2,4-triazol-5-one] | 0.1 to 1 µM
COc1ccc(Cn2nc(N3CC(c4ccccc4)C(c4ccc(Cl)cc4)=N3)n([C@H](C)C(N)=O)c2=O)cc1OC (stereo partly drawn) [Compound 197, (2R)-2-[3-[3-(4-chlorophenyl)-4-phenyl-4,5-dihydropyrazol-1-yl]-1-[(3,4-dimethoxyphenyl)methyl]-5-oxo-1,2,4-triazol-4-yl]propanamide] | 0.1 to 1 µM
O=C(O)CCn1c(N2C[C@@]3(CCc4ccccc43)C(c3ccc(Cl)cc3)=N2)nn(Cc2ccc(Cl)cc2)c1=O [Compound 131] | > 5 µM
Cn1c(N2C[C@@H](c3ccccc3)C(c3ccc(Cl)cc3)=N2)nn(CCc2ccc(C(N)=O)cc2)c1=O [Compound 212] | > 5 µM
Cn1c(N2CC(c3ccccc3)C(c3ccc(Cl)cc3)=N2)nn(Cc2cccc(C#N)c2)c1=O (stereo not shown) [Compound 170] | < 0.1 µM
Cn1c(N2C[C@@H](c3ccccc3)C(c3ccc(Cl)cc3)=N2)nn(-c2ccc(CN3CCOCC3)cc2)c1=O [Compound 146] | > 5 µM
O=c1n(Cc2ccc(Cl)cc2)nc(N2CC3(CCc4ccccc43)C(c3ccc(Cl)cc3)=N2)n1CCO (stereo in doubt) [Compound 121, 3-[(1S)-3-(4-chlorophenyl)-1,2,3,5-tetrahydrospiro[indene-1,4-pyrazol]-1-yl]-1-[(4-chlorophenyl)methyl]-4-(2-hydroxyethyl)-4,5-dihydro-1H-1,2,4-triazol-5-one] | 0.1 to 1 µM
Cc1ccc(Cn2nc(N3CC(c4ccccc4)C(c4ccc(Cl)cc4)=N3)n(C)c2=O)cc1F (stereo not shown) [Compound 175] | < 0.1 µM
COc1ccc(Cn2nc(N3CC(c4ccccc4)C(c4ccc(Cl)cc4)=N3)n([C@@H](C)C(N)=O)c2=O)cc1OC (stereo partly drawn) [Compound 194, (2S)-2-[3-[3-(4-chlorophenyl)-4-phenyl-4,5-dihydropyrazol-1-yl]-1-[(3,4-dimethoxyphenyl)methyl]-5-oxo-1,2,4-triazol-4-yl]propanamide] | 0.1 to 1 µM
C[C@H](c1ccc(Cl)cc1)n1nc(N2C[C@H](c3ccccc3)C(c3ccc(Cl)cc3)=N2)n(CC(N)=O)c1=O [Compound 154] | < 0.1 µM

SMILES | IC50
Cn1c(N2C[C@@H](c3ccccc3)C(c3ccc(Cl)cc3)=N2)nn(Cc2ccc(CN3CCOCC3)cc2)c1=O [Compound 134] | 1 to 5 µM
Cn1nc(N2C[C@]3(CCc4ccccc43)C(c3ccc(Cl)cc3)=N2)n(C)c1=O [Compound 138] | > 5 µM
C[C@@H](C(=O)NCCO)n1c(N2C[C@H](c3ccccc3)C(c3ccc(Cl)cc3)=N2)nn(Cc2ccc(Cl)cc2)c1=O [Compound 184, (2S)-2-[3-[(4S)-3-(4-chlorophenyl)-4-phenyl-4,5-dihydropyrazol-1-yl]-1-[(4-chlorophenyl)methyl]-5-oxo-1,2,4-triazol-4-yl]-N-(2-hydroxyethyl)propanamide] | < 0.1 µM
C[C@@H](C(N)=O)n1c(N2C[C@H](c3ccccc3)C(c3ccc(Cl)cc3)=N2)n[nH]c1=O [Compound 203, (2S)-2-[3-[(4S)-3-(4-chlorophenyl)-4-phenyl-4,5-dihydropyrazol-1-yl]-5-oxo-1H-1,2,4-triazol-4-yl]propanamide] | > 5 µM
Cn1c(N2C[C@@H](c3ccccc3)C(c3ccc(Cl)cc3)=N2)nn(-c2ccc(Cl)cc2)c1=O [Compound 100] | > 5 µM
C[C@@H](C(N)=O)n1c(N2C[C@H](c3ccccc3)C(c3ccc(Cl)cc3)=N2)nn(Cc2ccc(Cl)cc2)c1=O [Compound 176] | < 0.1 µM
O=c1n(-c2ccc(Cl)cc2)nc(N2C[C@@]3(CCc4ccccc43)C(c3ccc(Cl)cc3)=N2)n1CCO [Compound 112] | > 5 µM
Cn1c(N2C[C@@H](c3ccccc3)C(c3ccc(Cl)cc3)=N2)nn(Cc2ccccc2)c1=O [Compound 166] | 0.1 to 1 µM
Cc1ccc(Cn2nc(N3C[C@H](c4ccccc4)C(c4ccc(Cl)cc4)=N3)n(C)c2=O)cc1 [Compound 163] | < 0.1 µM
Cn1c(N2C[C@]3(CCc4ccccc43)C(c3ccc(Cl)cc3)=N2)nn(-c2ccc(Cl)cc2)c1=O [Compound 109] | > 5 µM
Cn1c(N2C[C@@]3(CCc4ccccc43)C(c3ccc(Cl)cc3)=N2)nn(Cc2ccc(Cl)cc2)c1=O [Compound 113] | 1 to 5 µM
Cn1c(N2C[C@H](c3ccccc3)C(c3ccc(Cl)cc3)=N2)nn(-c2ccc(Cl)cc2)c1=O [Compound 101, 1-(4-chlorophenyl)-3-[(4S)-3-(4-chlorophenyl)-4-phenyl-4,5-dihydro-1H-pyrazol-1-yl]-4-methyl-4,5-dihydro-1H-1,2,4-triazol-5-one] | < 0.1 µM
NC(=O)Cn1c(N2C[C@@]3(CCc4ccccc43)C(c3ccc(Cl)cc3)=N2)nn(-c2ccc(Cl)cc2)c1=O [Compound 119] | > 5 µM
C[C@H](c1ccc(Cl)cc1)n1nc(N2C[C@@H](c3ccccc3)C(c3ccc(Cl)cc3)=N2)n(CC(N)=O)c1=O [Compound 152] | 1 to 5 µM
Cn1c(N2C[C@@H](c3ccccc3)C(c3ccc(Cl)cc3)=N2)n[nH]c1=O [Compound 181] | > 5 µM
C[C@@H](c1ccc(Cl)cc1)n1nc(N2C[C@H](c3ccccc3)C(c3ccc(Cl)cc3)=N2)n(CC(N)=O)c1=O [Compound 153] | < 0.1 µM
Cn1c(N2CC3(CCc4ccccc43)C(c3ccc(Cl)cc3)=N2)nn(CC2CCCCC2)c1=O (stereo in doubt) [Compound 140, 3-[(1R)-3-(4-chlorophenyl)-1,2,3,5-tetrahydrospiro[indene-1,4-pyrazol]-1-yl]-1-(cyclohexylmethyl)-4-methyl-4,5-dihydro-1H-1,2,4-triazol-5-one] | 1 to 5 µM
